From PubChem BioAssay (NCI)
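These data come from cells grown in 96-well plates and exposed to compound for 48 hours at five concentrations. At the TGI there is no net growth.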

What was measured:
Experiment in all cases: DTP human tumour cell line panel, 48 h
COLO 205 colon = tested on: COLO 205 colon
HCT-116 colon = tested on: HCT-116 colon
ACHN renal = tested on: ACHN renal
SK-MEL-28 melanoma = tested on: SK-MEL-28 melanoma
EKVX NSCLC = tested on: EKVX NSCLC
KM12 colon = tested on: KM12 colon
CAKI-1 renal = tested on: CAKI-1 renal
NCI-H522 lung = tested on: NCI-H522 lung
DU-145 prostate = tested on: DU-145 prostate
PC-3 prostate = tested on: PC-3 prostate
OVCAR-5 ovarian = tested on: OVCAR-5 ovarian
HT29 colon = tested on: HT29 colon
NCI-H460 lung = tested on: NCI-H460 lung
SN12C renal = tested on: SN12C renal
786-0 renal = tested on: 786-0 renal
RXF 393 renal = tested on: RXF 393 renal
MCF7 breast = tested on: MCF7 breast
IGROV1 ovarian = tested on: IGROV1 ovarian
SF-295 CNS = tested on: SF-295 CNS
LOX IMVI melanoma = tested on: LOX IMVI melanoma
MDA-N = tested on: MDA-N
SF-539 CNS = tested on: SF-539 CNS
MDA-MB-231 breast = tested on: MDA-MB-231 breast
UACC-257 melanoma = tested on: UACC-257 melanoma
HOP-92 NSCLC = tested on: HOP-92 NSCLC
UO-31 renal = tested on: UO-31 renal
K-562 leukemia = tested on: K-562 leukemia
OVCAR-8 ovarian = tested on: OVCAR-8 ovarian
MDA-MB-435 = tested on: MDA-MB-435
UACC-62 melanoma = tested on: UACC-62 melanoma
HL-60(TB) leukemia = tested on: HL-60(TB) leukemia
OVCAR-4 ovarian = tested on: OVCAR-4 ovarian
HCC-2998 colon = tested on: HCC-2998 colon
T-47D breast = tested on: T-47D breast
MALME-3M melanoma = tested on: MALME-3M melanoma
NCI-H23 lung = tested on: NCI-H23 lung
SK-MEL-2 melanoma = tested on: SK-MEL-2 melanoma
A498 renal = tested on: A498 renal
SW-620 colon = tested on: SW-620 colon
NCI/ADR-RES ovarian = tested on: NCI/ADR-RES ovarian
CCRF-CEM leukemia = tested on: CCRF-CEM leukemia
U251 CNS = tested on: U251 CNS
SK-OV-3 ovarian = tested on: SK-OV-3 ovarian
TK-10 renal = tested on: TK-10 renal
M14 melanoma = tested on: M14 melanoma
OVCAR-3 ovarian = tested on: OVCAR-3 ovarian
HOP-62 NSCLC = tested on: HOP-62 NSCLC
BT-549 breast = tested on: BT-549 breast
SNB-19 CNS = tested on: SNB-19 CNS
HS 578T breast = tested on: HS 578T breast
MOLT-4 leukemia = tested on: MOLT-4 leukemia
SR leukemia = tested on: SR leukemia
SF-268 CNS = tested on: SF-268 CNS
HCT-15 colon = tested on: HCT-15 colon
SK-MEL-5 melanoma = tested on: SK-MEL-5 melanoma
RPMI-8226 leukemia = tested on: RPMI-8226 leukemia
SNB-75 CNS = tested on: SNB-75 CNS
A549 NSCLC = tested on: A549 NSCLC
NCI-H226 lung = tested on: NCI-H226 lung

Molecule `O=C1O/C(=C\c2ccc(O)cc2)C(c2ccc(O)c(Cl)c2)=C1Br` has a TGI (COLO 205 colon) of 33.4 µM, a TGI (HCT-116 colon) of 23.6 µM and a TGI (ACHN renal) of 30 µM. It also gave a TGI (SK-MEL-28 melanoma) of 26.2 µM, a TGI (EKVX NSCLC) of 40.7 µM and a TGI (KM12 colon) of 30.3 µM. It also gave a TGI (CAKI-1 renal) of 49.3 µM, a TGI (NCI-H522 lung) of 20.5 µM and a TGI (DU-145 prostate) of 27.6 µM. For the same molecule, the TGI (PC-3 prostate) was 23.7 µM, the TGI (OVCAR-5 ovarian) was 35.4 µM and the TGI (HT29 colon) was 29.9 µM. The TGI (NCI-H460 lung) was 38.7 µM, the TGI (SN12C renal) was 46.4 µM and the TGI (786-0 renal) was 31.6 µM. It also gave a TGI (RXF 393 renal) of 59.8 µM, a TGI (MCF7 breast) of 37.1 µM and a TGI (IGROV1 ovarian) of 25.7 µM. It also gave a TGI (SF-295 CNS) of 28.9 µM, a TGI (LOX IMVI melanoma) of 61.2 µM and a TGI (MDA-N) of over 100 µM. For the same molecule, the TGI (SF-539 CNS) was 29.1 µM, the TGI (MDA-MB-231 breast) was 59.9 µM and the TGI (UACC-257 melanoma) was 26.8 µM. The TGI (HOP-92 NSCLC) was 32.1 µM, the TGI (UO-31 renal) was 36.4 µM and the TGI (K-562 leukemia) was 10.5 µM. It also gave a TGI (OVCAR-8 ovarian) of 73.8 µM, a TGI (MDA-MB-435) of 53.2 µM and a TGI (UACC-62 melanoma) of 28.9 µM. The TGI (HL-60(TB) leukemia) was 51.2 µM, the TGI (OVCAR-4 ovarian) was 38.4 µM and the TGI (HCC-2998 colon) was 23.6 µM. The TGI (T-47D breast) was 62.9 µM, the TGI (MALME-3M melanoma) was 29.5 µM and the TGI (NCI-H23 lung) was 59.2 µM. It also gave a TGI (SK-MEL-2 melanoma) of 28.5 µM, a TGI (A498 renal) of 34.6 µM and a TGI (SW-620 colon) of 37.9 µM. For the same molecule, the TGI (NCI/ADR-RES ovarian) was 65.4 µM, the TGI (CCRF-CEM leukemia) was 32.8 µM and the TGI (U251 CNS) was 34.5 µM. The TGI (SK-OV-3 ovarian) was 37.2 µM, the TGI (TK-10 renal) was 49.9 µM and the TGI (M14 melanoma) was 26.4 µM. It also gave a TGI (OVCAR-3 ovarian) of 21.1 µM, a TGI (HOP-62 NSCLC) of 35.3 µM and a TGI (BT-549 breast) of 23.8 µM. It also gave a TGI (SNB-19 CNS) of 62.7 µM, a TGI (HS 578T breast) of 59.1 µM and a TGI (MOLT-4 leukemia) of 49 µM. For the same molecule, the TGI (SR leukemia) was 21 µM, the TGI (SF-268 CNS) was 45.2 µM and the TGI (HCT-15 colon) was 26.7 µM. It also gave a TGI (SK-MEL-5 melanoma) of 25.9 µM and a TGI (RPMI-8226 leukemia) of 30.7 µM.

`CC(=O)Nc1ncc2c(n1)-c1ccccc1OC2` gave a TGI (COLO 205 colon) of over 100 µM, a TGI (HCT-116 colon) of over 100 µM and a TGI (SNB-75 CNS) of over 100 µM. The TGI (ACHN renal) was over 100 µM, the TGI (EKVX NSCLC) was over 100 µM and the TGI (KM12 colon) was over 100 µM. For the same molecule, the TGI (CAKI-1 renal) was over 100 µM, the TGI (NCI-H522 lung) was over 100 µM and the TGI (DU-145 prostate) was over 100 µM. It also gave a TGI (PC-3 prostate) of over 100 µM, a TGI (OVCAR-5 ovarian) of over 100 µM and a TGI (HT29 colon) of over 100 µM. For the same molecule, the TGI (NCI-H460 lung) was over 100 µM, the TGI (SN12C renal) was over 100 µM and the TGI (786-0 renal) was over 100 µM. The TGI (RXF 393 renal) was over 100 µM, the TGI (MCF7 breast) was over 100 µM and the TGI (IGROV1 ovarian) was over 100 µM. It also gave a TGI (SF-295 CNS) of over 100 µM, a TGI (LOX IMVI melanoma) of over 100 µM and a TGI (MDA-N) of over 100 µM. For the same molecule, the TGI (SF-539 CNS) was over 100 µM, the TGI (MDA-MB-231 breast) was over 100 µM and the TGI (UACC-257 melanoma) was over 100 µM. It also gave a TGI (HOP-92 NSCLC) of over 100 µM, a TGI (UO-31 renal) of over 100 µM and a TGI (OVCAR-8 ovarian) of over 100 µM. For the same molecule, the TGI (A549 NSCLC) was over 100 µM, the TGI (MDA-MB-435) was over 100 µM and the TGI (UACC-62 melanoma) was over 100 µM. The TGI (HL-60(TB) leukemia) was over 100 µM, the TGI (OVCAR-4 ovarian) was over 100 µM and the TGI (T-47D breast) was over 100 µM. The TGI (NCI-H23 lung) was over 100 µM, the TGI (SK-MEL-2 melanoma) was over 100 µM and the TGI (A498 renal) was over 100 µM. For the same molecule, the TGI (SW-620 colon) was over 100 µM, the TGI (NCI/ADR-RES ovarian) was over 100 µM and the TGI (CCRF-CEM leukemia) was over 100 µM. For the same molecule, the TGI (U251 CNS) was over 100 µM, the TGI (SK-OV-3 ovarian) was over 100 µM and the TGI (TK-10 renal) was over 100 µM. The TGI (M14 melanoma) was over 100 µM, the TGI (OVCAR-3 ovarian) was over 100 µM and the TGI (NCI-H226 lung) was over 100 µM. For the same molecule, the TGI (BT-549 breast) was over 100 µM, the TGI (SNB-19 CNS) was over 100 µM and the TGI (HS 578T breast) was 94.4 µM. For the same molecule, the TGI (MOLT-4 leukemia) was over 100 µM, the TGI (SR leukemia) was over 100 µM and the TGI (SF-268 CNS) was over 100 µM. For the same molecule, the TGI (HCT-15 colon) was over 100 µM, the TGI (SK-MEL-5 melanoma) was over 100 µM and the TGI (RPMI-8226 leukemia) was over 100 µM.
